Among the test systems are HL-60(TB) leukemia; MDA-MB-231 breast; IGROV1 ovarian; HS 578T breast; HCC-2998 colon; NCI-H23 lung; SK-OV-3 ovarian; T-47D breast.
Common to all, as to test: inhibition of tumour cell growth, NCI panel, 48 h

Our source for the TGI and GI50 values is PubChem BioAssay (NCI).

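Five compound concentrations were applied to cells in 96-well plates for 48 hours; endpoints were derived by simple linear interpolation of the resulting dose-response curve. GI50 is the concentration that inhibits growth by half. At the TGI there is no net growth.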 Bounds are passed on as bounds.

`COC(=O)C1CCCN1C(=O)C(Cc1cn(S(=O)(=O)c2ccc(C)cc2)cn1)NC(=O)OC(C)(C)C` (stereo unspecified): the TGI in the assay on HL-60(TB) leukemia, in the assay with MDA-MB-231 breast, in the assay with IGROV1 ovarian, with HS 578T breast, in the assay on HCC-2998 colon and in the assay on NCI-H23 lung was over 100 µM in each case.
In the case of `CCOC(=O)C1C2CCC1CC(=NNc1ccc([N+](=O)[O-])cc1[N+](=O)[O-])C2` (stereo unspecified), the TGI in the assay with SK-OV-3 ovarian, with MDA-MB-231 breast, with IGROV1 ovarian, with HCC-2998 colon and with NCI-H23 lung was over 50 µM throughout.
On to `COc1ccc(-c2nn(-c3ccc(NC(=O)Nc4cc(C(F)(F)F)cc(C(F)(F)F)c4)cc3)cc2-c2ccncc2)cc1Cl`, for which the GI50 in the assay with HL-60(TB) leukemia was 2.5 µM; in the assay with T-47D breast, 4.1 µM; in the assay with MDA-MB-231 breast, 1.81 µM; in the assay on IGROV1 ovarian, 3.45 µM; in the assay on HS 578T breast, 1.53 µM; with HCC-2998 colon, 3.12 µM. In addition, the GI50 in the assay with NCI-H23 lung was 2.78 µM. Moreover, the TGI was 6.58 µM in the assay with HL-60(TB) leukemia; 83.3 µM with T-47D breast; 4.44 µM in the assay on MDA-MB-231 breast; over 100 µM with IGROV1 ovarian; 6.76 µM in the assay with HS 578T breast; 46.7 µM in the assay with HCC-2998 colon. This compound also yielded a TGI in the assay with NCI-H23 lung of over 100 µM.
With `C=CCOc1ccc(C2C(C(=O)OCC)C(=O)CC(C)(O)C2C(=O)OCC)cc1OC` (stereo unspecified), the TGI in the assay with HL-60(TB) leukemia, in the assay on T-47D breast, in the assay on MDA-MB-231 breast, with IGROV1 ovarian, in the assay with HS 578T breast and in the assay with HCC-2998 colon was over 100 µM in each case. Besides, the TGI in the assay with NCI-H23 lung is over 100 µM.
Regarding `C=C1CN2CC(=C)CN(C1)CS(=O)(=O)N1CC(=C)CN(CC(=C)C1)S(=O)(=O)N1CC(=C)CN(CC(=C)C1)S(=O)(=O)C2`, the TGI in the assay with HL-60(TB) leukemia is over 100 µM; in the assay with MDA-MB-231 breast, 92.1 µM; in the assay with IGROV1 ovarian, over 100 µM; in the assay with HS 578T breast, 86.1 µM; in the assay with HCC-2998 colon, 37.5 µM; in the assay with NCI-H23 lung, over 100 µM.
`O=C1c2ccccc2C2(c3ccc(Cl)cc3)N[C@H]3CCCC[C@@H]3N12` (stereo partly specified): the TGI in the assay with HL-60(TB) leukemia, in the assay on T-47D breast, with SK-OV-3 ovarian, with MDA-MB-231 breast, in the assay on IGROV1 ovarian and with HS 578T breast was over 100 µM each time. For the same compound, in the assay on NCI-H23 lung, the TGI was over 100 µM.
For `CCCCN=C(c1ccccc1)N1CCOCC1`, the TGI in the assay with HL-60(TB) leukemia, in the assay on SK-OV-3 ovarian, in the assay with MDA-MB-231 breast, in the assay with IGROV1 ovarian, in the assay with HS 578T breast and in the assay with NCI-H23 lung was over 100 µM throughout.
`Nc1ccc(S(=O)(=O)Nc2nccs2)cc1`: the TGI in the assay on HL-60(TB) leukemia, in the assay with T-47D breast, with SK-OV-3 ovarian, with MDA-MB-231 breast, in the assay on IGROV1 ovarian and with HCC-2998 colon was over 100 µM each time. The compound further showed a TGI in the assay on NCI-H23 lung of over 100 µM.
Consider `O=[N+]([O-])/C(C(Cl)=C(Cl)Cl)=C(\N1CCCCC1)n1cncn1`, for which the TGI turned out to be 38.3 µM in the assay on T-47D breast; 37.3 µM in the assay on SK-OV-3 ovarian; 30.1 µM in the assay with MDA-MB-231 breast; 24 µM with IGROV1 ovarian; 28.2 µM in the assay with HS 578T breast; 40.5 µM in the assay on HCC-2998 colon. Moreover, the TGI in the assay with NCI-H23 lung was found to be 30.2 µM.
For the compound `CCOc1ccc(/C=C2/C(=O)N=C(NC(C)=O)N2C)cc1`, the TGI in the assay with HL-60(TB) leukemia was 71.7 µM; with T-47D breast, over 100 µM; in the assay on SK-OV-3 ovarian, over 100 µM; with MDA-MB-231 breast it was over 100 µM; in the assay with IGROV1 ovarian, over 100 µM; in the assay on HCC-2998 colon it was over 100 µM. In the assay with NCI-H23 lung, this compound yielded a TGI of over 100 µM.
Regarding `O=C1NC(=O)C(CC2CCCCCCCCCCC2=O)C(=O)N1` (stereo unspecified), the TGI with HL-60(TB) leukemia, in the assay with SK-OV-3 ovarian, in the assay with MDA-MB-231 breast, in the assay with IGROV1 ovarian, with HS 578T breast and in the assay with HCC-2998 colon was over 100 µM in each case. In addition, the TGI in the assay with NCI-H23 lung was over 100 µM.
`C=C([C@@]1(O)C[C@H]2[C@H](CCC2(OC)OC)[C@@H]2c3ccccc3O[C@@H]21)[Si](C)(C)C`: the TGI with HL-60(TB) leukemia is 98.6 µM; with T-47D breast it was over 100 µM; in the assay with SK-OV-3 ovarian, over 100 µM; with MDA-MB-231 breast, over 100 µM; with IGROV1 ovarian it was over 100 µM; with HS 578T breast, over 100 µM. Also, the TGI with HCC-2998 colon was over 100 µM.
Consider `CC1CCCC(CC(=O)O)(CC(=O)O)C1` (stereo unspecified), for which the TGI in the assay on HL-60(TB) leukemia, in the assay on MDA-MB-231 breast, in the assay on IGROV1 ovarian, in the assay with HS 578T breast, in the assay with HCC-2998 colon and in the assay with NCI-H23 lung was over 100 µM in each case.
As to `O=C(O)c1ccc(OCc2nc3cc(C(F)(F)F)ccc3nc2-c2ccccc2)cc1`, the TGI in the assay on HL-60(TB) leukemia, with T-47D breast, in the assay with MDA-MB-231 breast, in the assay with IGROV1 ovarian, with HS 578T breast and with HCC-2998 colon was over 100 µM throughout. This compound had a TGI in the assay on NCI-H23 lung of over 100 µM.
For the compound `O=C1c2cccnc2-c2nccc3c2c1nc1cc(Br)ccc13`, the TGI in the assay on T-47D breast turned out to be 0.848 µM; in the assay with SK-OV-3 ovarian it was 0.706 µM; in the assay on MDA-MB-231 breast, 0.876 µM; with IGROV1 ovarian, 0.31 µM; in the assay on HS 578T breast, 0.942 µM; with HCC-2998 colon, 1.63 µM. Moreover, the TGI in the assay with NCI-H23 lung is 0.313 µM.
For `COC(=O)C1=C(C)NC(C)=C(C(=O)OC)C1c1nc2sccn2c1[N+](=O)[O-]`, the TGI in the assay on HL-60(TB) leukemia, in the assay with T-47D breast, in the assay on SK-OV-3 ovarian, in the assay on MDA-MB-231 breast, with HS 578T breast and in the assay on HCC-2998 colon was over 100 µM in each case. For the same compound, in the assay with NCI-H23 lung, the TGI was over 100 µM.
For the compound `NNC(=O)CSc1nc2ccccc2c(=O)n1N`, the TGI in the assay with T-47D breast was over 100 µM; with MDA-MB-231 breast, 61.2 µM; in the assay with IGROV1 ovarian, over 100 µM; in the assay on HS 578T breast, 98.8 µM; in the assay on HCC-2998 colon, over 100 µM; with NCI-H23 lung, over 100 µM.
Consider `COc1ccc(/C=C2\N=C(SC)NC2=O)cc1`, for which the TGI in the assay on T-47D breast, in the assay on SK-OV-3 ovarian, with MDA-MB-231 breast, in the assay with IGROV1 ovarian, in the assay on HS 578T breast and in the assay with HCC-2998 colon was over 100 µM each time. For the same compound, in the assay with NCI-H23 lung, the TGI is over 100 µM.
